Measured values from PubChem BioAssay (NCI).
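Cells were grown in 96-well plates and exposed to each compound for 48 hours at five concentrations; endpoints were interpolated linearly between bracketing concentrations, or set to the highest concentration if not reached. At the GI50, growth is halved. TGI marks complete inhibition of growth.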

Experiments:
Assay in all cases: growth of human tumour cells (NCI), 48 h
[1] = test system: 786-0 renal
[2] = test system: A498 renal
[3] = test system: A549 NSCLC
[4] = test system: ACHN renal
[5] = test system: BT-549 breast
[6] = test system: CAKI-1 renal
[7] = test system: CCRF-CEM leukemia
[8] = test system: COLO 205 colon
[9] = test system: DU-145 prostate
[10] = test system: EKVX NSCLC
[11] = test system: HCC-2998 colon
[12] = test system: HCT-116 colon
[13] = test system: HCT-15 colon
[14] = test system: HL-60(TB) leukemia
[15] = test system: HOP-62 NSCLC
[16] = test system: HOP-92 NSCLC
[17] = test system: HS 578T breast
[18] = test system: HT29 colon
[19] = test system: IGROV1 ovarian
[20] = test system: K-562 leukemia
[21] = test system: KM12 colon
[22] = test system: LOX IMVI melanoma
[23] = test system: M14 melanoma
[24] = test system: MALME-3M melanoma
[25] = test system: MCF7 breast
[26] = test system: MDA-MB-231 breast
[27] = test system: MDA-MB-435
[28] = test system: MOLT-4 leukemia
[29] = test system: NCI-H226 lung
[30] = test system: NCI-H23 lung
[31] = test system: NCI-H460 lung
[32] = test system: NCI-H522 lung
[33] = test system: NCI/ADR-RES ovarian
[34] = test system: OVCAR-3 ovarian
[35] = test system: OVCAR-4 ovarian
[36] = test system: OVCAR-5 ovarian
[37] = test system: OVCAR-8 ovarian
[38] = test system: PC-3 prostate
[39] = test system: RPMI-8226 leukemia
[40] = test system: RXF 393 renal
[41] = test system: SF-268 CNS
[42] = test system: SF-295 CNS
[43] = test system: SF-539 CNS
[44] = test system: SK-MEL-2 melanoma
[45] = test system: SK-MEL-28 melanoma
[46] = test system: SK-MEL-5 melanoma
[47] = test system: SK-OV-3 ovarian
[48] = test system: SN12C renal
[49] = test system: SNB-19 CNS
[50] = test system: SNB-75 CNS
[51] = test system: SR leukemia
[52] = test system: SW-620 colon
[53] = test system: T-47D breast
[54] = test system: TK-10 renal
[55] = test system: U251 CNS
[56] = test system: UACC-257 melanoma
[57] = test system: UACC-62 melanoma
[58] = test system: UO-31 renal

With `c1ccc(Cc2nc3ccc(Nc4ncnc5ccccc45)cc3[nH]2)cc1` as the compound, how does the GI50 [1] read?
Its GI50 is > 25 µM.

And the TGI [1]?
The TGI was > 25 µM.

And the GI50 [2]?
Its GI50 is 9.41 µM.

And the TGI [2]?
Its TGI is > 25 µM.

What about the GI50 [3] of the same compound?
Its GI50 is > 25 µM.

What about the TGI [3] of the same compound?
Its TGI is > 25 µM.

And the GI50 [4]?
Its GI50 is 14.8 µM.

What about the TGI [4] of the same compound?
Its TGI is > 25 µM.

What about the GI50 [5] of the same compound?
The GI50 was > 25 µM.

What about the TGI [5] of the same compound?
The TGI was > 25 µM.

And the GI50 [6]?
The GI50 was 8.34 µM.

And the TGI [6]?
Its TGI is > 25 µM.

And the GI50 [7]?
The GI50 was > 25 µM.

What about the TGI [7] of the same compound?
Its TGI is > 25 µM.

What about the GI50 [8] of the same compound?
The GI50 was > 25 µM.

What about the TGI [8] of the same compound?
Its TGI is > 25 µM.

And the GI50 [9]?
Its GI50 is > 25 µM.

What about the TGI [9] of the same compound?
Its TGI is > 25 µM.

What about the GI50 [10] of the same compound?
Its GI50 is 9.4 µM.

What about the TGI [10] of the same compound?
The TGI was > 25 µM.

And the GI50 [11]?
The GI50 was > 25 µM.

What about the TGI [11] of the same compound?
The TGI was > 25 µM.

What about the GI50 [12] of the same compound?
Its GI50 is > 25 µM.

And the TGI [12]?
Its TGI is > 25 µM.

And the GI50 [13]?
Its GI50 is > 25 µM.

And the TGI [13]?
Its TGI is > 25 µM.

And the GI50 [14]?
The GI50 was 20 µM.

What about the TGI [14] of the same compound?
Its TGI is > 25 µM.

And the GI50 [15]?
The GI50 was > 25 µM.

What about the TGI [15] of the same compound?
The TGI was > 25 µM.

What about the GI50 [16] of the same compound?
The GI50 was 9.26 µM.

And the TGI [16]?
Its TGI is > 25 µM.

And the GI50 [17]?
Its GI50 is > 25 µM.

And the TGI [17]?
Its TGI is > 25 µM.

What about the GI50 [18] of the same compound?
The GI50 was 9.07 µM.

What about the TGI [18] of the same compound?
The TGI was > 25 µM.

What about the GI50 [19] of the same compound?
Its GI50 is 16.2 µM.

What about the TGI [19] of the same compound?
Its TGI is > 25 µM.

What about the GI50 [20] of the same compound?
Its GI50 is > 25 µM.

What about the TGI [20] of the same compound?
The TGI was > 25 µM.

And the GI50 [21]?
Its GI50 is > 25 µM.

And the TGI [21]?
The TGI was > 25 µM.

And the GI50 [22]?
The GI50 was 17.3 µM.

And the TGI [22]?
Its TGI is > 25 µM.

What about the GI50 [23] of the same compound?
The GI50 was > 25 µM.

What about the TGI [23] of the same compound?
The TGI was > 25 µM.

What about the GI50 [24] of the same compound?
The GI50 was > 25 µM.

And the TGI [24]?
The TGI was > 25 µM.

And the GI50 [25]?
Its GI50 is > 25 µM.

What about the TGI [25] of the same compound?
The TGI was > 25 µM.

And the GI50 [26]?
The GI50 was > 25 µM.

What about the TGI [26] of the same compound?
The TGI was > 25 µM.

What about the GI50 [27] of the same compound?
The GI50 was > 25 µM.

And the TGI [27]?
Its TGI is > 25 µM.

What about the GI50 [28] of the same compound?
The GI50 was > 25 µM.

What about the TGI [28] of the same compound?
The TGI was > 25 µM.

What about the GI50 [29] of the same compound?
The GI50 was > 25 µM.

What about the TGI [29] of the same compound?
Its TGI is > 25 µM.

And the GI50 [30]?
Its GI50 is > 25 µM.

And the TGI [30]?
Its TGI is > 25 µM.

What about the GI50 [31] of the same compound?
Its GI50 is > 25 µM.

And the TGI [31]?
The TGI was > 25 µM.

What about the GI50 [32] of the same compound?
Its GI50 is > 15.1 µM.

And the TGI [32]?
The TGI was > 25 µM.

And the GI50 [33]?
The GI50 was > 25 µM.

What about the TGI [33] of the same compound?
Its TGI is > 25 µM.

What about the GI50 [34] of the same compound?
Its GI50 is > 25 µM.

And the TGI [34]?
The TGI was > 25 µM.

What about the GI50 [35] of the same compound?
The GI50 was > 25 µM.

What about the TGI [35] of the same compound?
The TGI was > 25 µM.

And the GI50 [36]?
The GI50 was 17.8 µM.

What about the TGI [36] of the same compound?
Its TGI is > 25 µM.

And the GI50 [37]?
Its GI50 is > 25 µM.

What about the TGI [37] of the same compound?
Its TGI is > 25 µM.

What about the GI50 [38] of the same compound?
The GI50 was > 25 µM.

What about the TGI [38] of the same compound?
Its TGI is > 25 µM.

And the GI50 [39]?
Its GI50 is 16.8 µM.

And the TGI [39]?
Its TGI is > 25 µM.

What about the GI50 [40] of the same compound?
Its GI50 is > 25 µM.

And the TGI [40]?
Its TGI is > 25 µM.

What about the GI50 [41] of the same compound?
Its GI50 is > 25 µM.

And the TGI [41]?
The TGI was > 25 µM.

And the GI50 [42]?
The GI50 was > 25 µM.

And the TGI [42]?
The TGI was > 25 µM.

And the GI50 [43]?
The GI50 was > 25 µM.

And the TGI [43]?
The TGI was > 25 µM.

And the GI50 [44]?
The GI50 was > 25 µM.

What about the TGI [44] of the same compound?
Its TGI is > 25 µM.

What about the GI50 [45] of the same compound?
The GI50 was > 25 µM.

And the TGI [45]?
The TGI was > 25 µM.

What about the GI50 [46] of the same compound?
The GI50 was > 25 µM.

What about the TGI [46] of the same compound?
The TGI was > 25 µM.

And the GI50 [47]?
The GI50 was 7.03 µM.

What about the TGI [47] of the same compound?
The TGI was > 25 µM.

What about the GI50 [48] of the same compound?
Its GI50 is 11.1 µM.

What about the TGI [48] of the same compound?
The TGI was > 25 µM.

What about the GI50 [49] of the same compound?
The GI50 was > 25 µM.

And the TGI [49]?
The TGI was > 25 µM.

And the GI50 [50]?
The GI50 was > 25 µM.

What about the TGI [50] of the same compound?
The TGI was > 25 µM.

And the GI50 [51]?
Its GI50 is > 25 µM.

What about the TGI [51] of the same compound?
The TGI was > 25 µM.

And the GI50 [52]?
Its GI50 is > 25 µM.

And the TGI [52]?
The TGI was > 25 µM.

And the GI50 [53]?
Its GI50 is > 25 µM.

What about the TGI [53] of the same compound?
The TGI was > 25 µM.

What about the GI50 [54] of the same compound?
Its GI50 is 5.85 µM.

What about the TGI [54] of the same compound?
Its TGI is > 25 µM.

And the GI50 [55]?
Its GI50 is > 25 µM.

What about the TGI [55] of the same compound?
The TGI was > 25 µM.

What about the GI50 [56] of the same compound?
The GI50 was > 25 µM.

And the TGI [56]?
Its TGI is > 25 µM.

What about the GI50 [57] of the same compound?
Its GI50 is > 25 µM.

What about the TGI [57] of the same compound?
Its TGI is > 25 µM.

And the GI50 [58]?
The GI50 was 8.98 µM.

What about the TGI [58] of the same compound?
The TGI was > 25 µM.
